Results published in US20110294810A1, “SUBSTITUTED (PYRIDYL)-AZINYLAMINE DERIVATIVES AS PLANT PROTECTION AGENTS” (priority 2008, published 2011).

Tested on: Phakopsora pachyrhizi
Experiment: Phakopsora test (soybeans) / protective
Assay type: in vivo
Details: 500 ppm of active ingredient, evaluated 11 days after inoculation
Protocol: Solvent: 28.5 parts by weight of acetone Emulsifier: 1.5 parts by weight of polyoxyethylene alkyl phenyl ether
To produce a suitable preparation of active compound, 1 part by weight of active compound is mixed with the stated amounts of solvent and emulsifier, and the concentrate is diluted with water to the desired concentration.
To test for protective activity, young plants are sprayed with the preparation of active compound at the stated rate of application. One day after spraying, the plants are inoculated with an aqueous spore suspension of the causal agent of soybean rust (Phakopsora pachyrhizi). The plants are then placed in a greenhouse at approximately 20° C. and a relative atmospheric humidity of approximately 80%.
The test is evaluated 11 days after the inoculation. 0% means an efficacy which corresponds to that of the control, while an efficacy of 100% means that no disease is observed.

| SMILES | efficacy [%] |
| --- | --- |
| OCc1cc(-c2ccnc(Nc3cccc(Cl)c3)n2)ccn1 [Compound A14, (4-{2-[(3-chlorophenyl)amino]pyrimidin-4-yl}pyridin-2-yl)methanol] | ≥ 80 |

Tested on: not listed separately
Experiment: Measurement of logP values by HPLC on reversed phase columns (EEC directive 79/831 Annex V.A8)
Assay type: physicochemical
Details: HPLC on reversed phase columns; usually LC-MS at pH 2.7 with 0.1% formic acid in water and acetonitrile, linear gradient 10% to 95% acetonitrile

| SMILES | log p |
| --- | --- |
| C#CCN(C)Cc1cc(-c2ccnc(Nc3cccc(Cl)c3)n2)ccn1 [Example A39] | 1.75 |
| CN(Cc1cc(-c2ccnc(Nc3cccc(Cl)c3)n2)ccn1)CC1CC1 [Example A40] | 1.84 |
| Clc1cccc(Nc2nccc(-c3ccnc(CN4CCCC4)c3)n2)c1 [Example A47] | 1.7 |
| CN(C)C1CCN(Cc2cc(-c3ccnc(Nc4cccc(Cl)c4)n3)ccn2)CC1 [Example A56] | 1.1 |
| CCOC(=O)C1CCCN(Cc2cc(-c3ccnc(Nc4cccc(Cl)c4)n3)ccn2)C1 (stereo not shown) [Example A57] | 1.98 |
| CSCc1cc(-c2ccnc(Nc3cccc(Cl)c3)n2)ccn1 [Example A67] | 3.17 |

Same assay, conditions: pH 2.7

| SMILES | log p |
| --- | --- |
| CC(=O)NCc1cc(-c2ccnc(Nc3cccc(Cl)c3)n2)ccn1 [Compound A4] | 2.03 |
| CCCCC(=O)OCc1cc(-c2ccnc(Nc3cccc(Cl)c3)n2)ccn1 [Example A23] | 4.29 |
| CC(C)(C)C(=O)OCc1cc(-c2ccnc(Nc3cccc(Cl)c3)n2)ccn1 [Example A24] | 4.31 |
| CC(C)CC(=O)OCc1cc(-c2ccnc(N(C(=O)CC(C)C)c3cccc(Cl)c3)n2)ccn1 [Example A27] | 4.56 |
| CCC(=O)OCc1cc(-c2ccnc(N(C(=O)CC)c3cccc(Cl)c3)n2)ccn1 [Example A28] | 3.11 |
| CCCCC(=O)OCc1cc(-c2ccnc(N(C(=O)CCCC)c3cccc(Cl)c3)n2)ccn1 [Example A29] | 4.65 |
| CC(C)(C)C(=O)OCc1cc(-c2ccnc(N(C(=O)C(C)(C)C)c3cccc(Cl)c3)n2)ccn1 [Example A30] | 4.7 |
| CC(C)C(=O)OCc1cc(-c2ccnc(N(C(=O)C(C)C)c3cccc(Cl)c3)n2)ccn1 [Example A32] | 3.83 |
| COCCC(=O)OCc1cc(-c2ccnc(Nc3cccc(Cl)c3)n2)ccn1 [Example A34] | 3.13 |
| O=C(OCc1cc(-c2ccnc(N(C(=O)C3CCCC3)c3cccc(Cl)c3)n2)ccn1)C1CCCC1 [Example A35] | 4.86 |
| CC(C)N(C)Cc1cc(-c2ccnc(Nc3cccc(Cl)c3)n2)ccn1 [Example A42] | 1.79 |
| CN(Cc1cc(-c2ccnc(Nc3cccc(Cl)c3)n2)ccn1)C(C)(C)C [Example A43] | 1.84 |
| CC1CC(C)CN(Cc2cc(-c3ccnc(Nc4cccc(Cl)c4)n3)ccn2)C1 (stereo not shown) [Example A48] | 2.1 |
| Clc1cccc(Nc2nccc(-c3ccnc(CN4CCOCC4)c3)n2)c1 [Example A50] | 1.6 |
| CN1CCN(Cc2cc(-c3ccnc(Nc4cccc(Cl)c4)n3)ccn2)CC1 [Example A54] | 1.45 |
| Clc1cccc(Nc2nccc(-c3ccnc(CN4CCSCC4)c3)n2)c1 [Example A55] | 1.78 |
| COCC1CCCN1Cc1cc(-c2ccnc(Nc3cccc(Cl)c3)n2)ccn1 (stereo not shown) [Example A62] | 1.82 |
| CCSCCNCc1cc(-c2ccnc(Nc3cccc(Cl)c3)n2)ccn1 [Example A66] | 2.1 |
| Clc1cccc(Nc2nccc(-c3ccnc(CI)c3)n2)c1 [Example A68] | 3.73 |
| CCCCCSCc1cc(-c2ccnc(Nc3cccc(Cl)c3)n2)ccn1 [Example A74] | 5.08 |
| C=CCSCc1cc(-c2ccnc(Nc3cccc(Cl)c3)n2)ccn1 [Example A75] | 3.8 |
| CC(C)(C)CCSCc1cc(-c2ccnc(Nc3cccc(Cl)c3)n2)ccn1 [Example A78] | 5.34 |
| FC(F)(F)CSCc1cc(-c2ccnc(Nc3cccc(Cl)c3)n2)ccn1 [Example A79] | 4.01 |
| CN(C)CCSCc1cc(-c2ccnc(Nc3cccc(Cl)c3)n2)ccn1 [Example A82] | 1.75 |
| CCOC(=O)CCSCc1cc(-c2ccnc(Nc3cccc(Cl)c3)n2)ccn1 [Example A85] | 3.67 |
| CC(C)CCSCc1cc(-c2ccnc(Nc3cccc(Cl)c3)n2)ccn1 [Example A86] | 4.97 |
| CCOCCNCc1cc(-c2ccnc(Nc3cccc(Cl)c3)n2)ccn1 [Example A95] | 1.84 |

Same assay, conditions: reversed phase HPLC column; HPLC on reversed phase columns; usually LC-MS at pH 2.7 with 0.1% formic acid in water and acetonitrile, linear gradient 10% to 95% acetonitrile; read-out: log p

| SMILES | chromatographic logP |
| --- | --- |
| OCc1cc(-c2ccnc(Nc3cccc(Cl)c3)n2)ccn1 [Compound A14, (4-{2-[(3-chlorophenyl)amino]pyrimidin-4-yl}pyridin-2-yl)methanol] | 1.91 |

Same assay, conditions: reversed phase HPLC column; LC-MS at pH 7.8, 0.001 molar ammonium hydrogen carbonate in water, gradient 10% to 95% acetonitrile; read-out: log p [c]

| SMILES | chromatographic logP |
| --- | --- |
| CC(N)c1cc(-c2ncnc(Nc3cccc(Cl)c3)n2)ccn1 (stereo not shown) [Compound C2, 4-[2-(1-aminoethyl)pyridin-4-yl]-N-(3-chlorophenyl)-1,3,5-triazin-2-amine] | 1.81 |

Tested on: Peronospora parasitica
Experiment: In vivo test on Peronospora parasitica (crucifer downy mildew), cabbage plants
Details: 500 ppm, cabbage plants sprayed 24 hours before contamination, grading 5 days after contamination
Protocol: Cabbage plants (Eminence variety) in starter cups, sown on a 50/50 peat soil-pozzolana substrate and grown at 18-20° C., are treated at the cotyledon stage by spraying with the aqueous suspension described above. Plants, used as controls, are treated with an aqueous solution not containing the active material. After 24 hours, the plants are contaminated by spraying them with an aqueous suspension of Peronospora parasitica spores (50 000 spores per ml). The spores are collected from infected plant. The contaminated cabbage plants are incubated for 5 days at 20° C., under a humid atmosphere. Grading is carried out 5 days after the contamination, in comparison with the control plants. Under these conditions, good (at least 70%) or total protection is observed at a dose of 500 ppm with the following compound: C2

| SMILES | protection (good, at least 70%, or total) |
| --- | --- |
| CC(N)c1cc(-c2ncnc(Nc3cccc(Cl)c3)n2)ccn1 (stereo not shown) [Compound C2, 4-[2-(1-aminoethyl)pyridin-4-yl]-N-(3-chlorophenyl)-1,3,5-triazin-2-amine] | at least 70% |

Tested on: Cochliobolus miyabeanus
Experiment: Cochliobolus test (rice) / protective
Assay type: in vivo
Details: 250 ppm of active ingredient, evaluated 4 days after inoculation

| SMILES | efficacy [%] |
| --- | --- |
| CC(N)c1cc(-c2ncnc(Nc3cccc(Cl)c3)n2)ccn1 (stereo not shown) [Compound C2, 4-[2-(1-aminoethyl)pyridin-4-yl]-N-(3-chlorophenyl)-1,3,5-triazin-2-amine] | ≥ 80 |

Tested on: Pyricularia oryzae
Experiment: not given
Assay type: in vivo
Details: 250 ppm of active ingredient, rice, protective, evaluated 5 days after inoculation

| SMILES | efficacy [%] |
| --- | --- |
| CC(N)c1cc(-c2ncnc(Nc3cccc(Cl)c3)n2)ccn1 (stereo not shown) [Compound C2, 4-[2-(1-aminoethyl)pyridin-4-yl]-N-(3-chlorophenyl)-1,3,5-triazin-2-amine] | ≥ 80 |

Tested on: Puccinia recondita
Experiment: In vivo test on Puccinia recondita (brown rust), wheat plants
Details: 500 ppm, wheat plants sprayed 24 hours before contamination, grading 10 days after contamination
Protocol: Wheat plants (Scipion variety) sown on 50/50 peat soil-pozzolana substrate in starter cups and grown at 12° C., are treated at the 1-leaf stage (10 cm tall) by spraying with the aqueous suspension described above. Plants, used as controls, are treated with an aqueous solution not containing the active material. After 24 hours, the plants are contaminated by spraying the leaves with an aqueous suspension of Puccinia recondita spores (100,000 spores per ml). […] The contaminated wheat plants are incubated for 24 hours at 20° C. and at 100% relative humidity, and then for 10 days at 20° C. and at 70% relative humidity. Grading is carried out 10 days after the contamination, in comparison with the control plants. Under these conditions, good (at least 70%) or total protection is observed at a dose of 500 ppm with the following compound: A4

| SMILES | protection (good, at least 70%, or total) |
| --- | --- |
| CC(=O)NCc1cc(-c2ccnc(Nc3cccc(Cl)c3)n2)ccn1 [Compound A4] | at least 70% |
